Assay results as given in paper PMC8678048 (Frontiers in Microbiology, 2021).
Like-named read-outs stand apart in the source and are kept apart here. Positions of bridges follow the written chain, without caps; N, C: chain ends. Residues, ends and D or L forms follow the SMILES beside them.

Legend:
ASFV SY18 strain = assay type: cell-based, African swine fever virus
[1] = tested on: human plasma (coagulation system); assay type: biochemical; details: pH 7.4
thrombin = assay type: biochemical; details: 10μM

Question: CC[C@H](C)[C@@H]1NC(=O)CNC(=O)[C@H](CO)NC(=O)[C@@H]2CSSC[C@@H](C(=O)N[C@@H](Cc3ccc(O)cc3)C(=O)O)NC(=O)[C@H](CCCCN)NC(=O)[C@@H]3CSSC[C@H](NC(=O)[C@H](CCC(N)=O)NC(=O)[C@H](Cc4ccc(O)cc4)NC(=O)[C@H](CCC(N)=O)NC(=O)[C@H](CC(N)=O)NC(=O)[C@H](Cc4ccccc4)NC(=O)[C@@H]4CCCN4C(=O)[C@@H](NC(=O)CNC(=O)[C@H](Cc4ccc(O)cc4)NC(=O)CN)CSSC[C@H](NC(=O)[C@H](Cc4ccc(O)cc4)NC(=O)CNC(=O)CNC(=O)[C@H](CCCCN)NC(=O)[C@H](Cc4ccc(O)cc4)NC(=O)CNC(=O)[C@H](CCCNC(=N)N)NC1=O)C(=O)N[C@@H](CCCCN)C(=O)NCC(=O)N[C@@H]([C@@H](C)O)C(=O)N[C@@H](Cc1ccccc1)C(=O)N[C@@H](CCCCN)C(=O)N[C@@H](CCC(N)=O)C(=O)N[C@@H]([C@@H](C)O)C(=O)N3)C(=O)N[C@@H](Cc1c[nH]cn1)C(=O)N[C@@H](CO)C(=O)N[C@@H](Cc1c[nH]cn1)C(=O)N2 [OPTX-1] (H-GYGCPFNQYQCHSHCSGIRGYKGGYCKGTFKQTCKCY-OH; disulfide 4-26, 11-34, 15-36 (inferred); N-terminus and C-terminus assumed) was tested. Which “inhibition of ASFV infection/replication” value (ASFV SY18 strain; 5μM) did it give?
Answer: The value was “inhibited ASFV infection in PAM cells”.

Question: What about the “inhibition of ASFV infection/replication” value (ASFV SY18 strain; 10μM) of the same compound?
Answer: Its value is “inhibited ASFV infection in PAM cells”.

Question: What about the “anticoagulant effect (plasma recalcification time)” value [1] of the same compound?
Answer: The value was “show anticoagulant effects in plasma-based coagulation assays”.

Question: And the thrombin inhibitory effect (thrombin)?
Answer: The thrombin inhibitory effect was “the activity of thrombin was inhibited”.

Question: What about the “cytotoxicity on Vero cells” value (Vero cells) of the same compound?
Answer: The value was “less cytotoxicity on Vero cells than other defensins”.

Question: What about the “overall cytotoxicity (Vero and PAM cells)” value (Vero cells) of the same compound?
Answer: The value was “relative low cytotoxicities”.

Question: What about the “cytotoxicity on PAM cells” value (PAM cells) of the same compound?
Answer: The value was “more significant than on Vero cells”.
